This passage reports IC50 results from US20240327380A1, “BTK INHIBITORS” (BIOGEN MA INC., priority 2020, published 2024).

A word on the IC50: it is the concentration at which inhibition is half-maximal.

In this experiment the target is T1, active BTK enzyme (Upstate 14-552) (Homo sapiens, UniProt Q06187).
T1 construct: purchased Upstate 14-552
As to the kind of experiment: In Vitro BTK Kinase Assay: Btk-PolyGAT-LS Assay. The settings on record: ATP 10 μM, polyGAT 100 nM, BTK 0.25 nM, 30 minutes, TRF readout. It is filed as biochemical. Here is the method:
In Vitro BTK Kinase Assay: Btk-PolyGAT-LS Assay The purpose of the BTK in vitro assay is to determine compound potency against BTK through the measurement of IC50. Compound inhibition is measured after monitoring the amount of phosphorylation of a fluorescein-labeled polyGAT peptide (Invitrogen PV3611) in the presence of active BTK enzyme (Upstate 14-552), ATP, and inhibitor. The BTK kinase reaction was done in a black 96 well plate (costar 3694). For a typical assay, a 24 μL aliquot of a ATP/peptide master mix (final concentration; ATP 10 μM, polyGAT 100 nM) in kinase buffer (10 mM Tris-HCl pH 7.5, 10 mM MgCl2, 200 μM […], 5 mM DTT, 0.01% Triton X-100, and 0.2 mg/ml casein) is added to each well. Next, […] of a 4-fold, 40× compound titration in 100% DMSO solvent is added, followed by adding 15 μL of BTK enzyme mix in 1× kinase buffer (with a final concentration of 0.25 nM). The assay is incubated for 30 minutes before being stopped with 28 μL of a 50 mM EDTA solution. Aliquots (5 μL) of the kinase reaction are transferred to a low volume white 384 well plate (Coming 3674), and 5 μL of a 2× detection buffer (Invitrogen PV3574, with 4 nM Tb-PY20 antibody, Invitrogen PV3552) is added. The plate is covered and incubated for 45 minutes at room temperature. Time resolved fluorescence (TRF) on Molecular Devices M5 (332 nm excitation; 488 nm emission; 518 nm fluorescein emission) is measured. IC50 values are calculated using a four parameter fit with 100% enzyme activity determined from the DMSO control and 0% activity from the EDTA control.

T1 sequence (Q06187 whole entry): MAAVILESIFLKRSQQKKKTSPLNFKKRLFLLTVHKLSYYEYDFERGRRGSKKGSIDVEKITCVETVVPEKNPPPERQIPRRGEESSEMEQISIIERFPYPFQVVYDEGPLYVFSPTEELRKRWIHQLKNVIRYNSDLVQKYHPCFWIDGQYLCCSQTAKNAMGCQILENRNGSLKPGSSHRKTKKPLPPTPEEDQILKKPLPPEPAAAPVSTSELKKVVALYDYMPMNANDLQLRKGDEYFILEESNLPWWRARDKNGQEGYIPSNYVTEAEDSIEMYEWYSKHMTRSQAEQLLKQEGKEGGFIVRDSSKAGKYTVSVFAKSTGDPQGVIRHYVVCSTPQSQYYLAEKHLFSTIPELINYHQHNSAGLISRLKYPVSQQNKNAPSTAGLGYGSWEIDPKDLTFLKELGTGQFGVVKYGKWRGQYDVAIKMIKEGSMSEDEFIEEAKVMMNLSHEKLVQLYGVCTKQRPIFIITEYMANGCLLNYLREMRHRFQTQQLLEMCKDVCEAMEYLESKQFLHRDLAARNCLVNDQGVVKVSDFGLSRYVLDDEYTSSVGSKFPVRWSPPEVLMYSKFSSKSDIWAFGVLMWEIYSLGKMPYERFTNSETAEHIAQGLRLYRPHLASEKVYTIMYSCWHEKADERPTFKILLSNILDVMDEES

With `Cc1cc(-c2c(C#N)cncc2N2CCN(C(=O)/C=C/CN(C)C)CC2)ccc1CNC(=O)c1cc(C(C)(C)C)on1` [Example 70, (E)-5-(tert-butyl)-N-(4-(3-cyano-5-(4-(4-(dimethylamino)but-2-enoyl)piperazin-1-yl)pyridin-4-yl)-2-methylbenzyl)isoxazole-3-carboxamide], the IC50 was in the range of 1 to 10 nM.
Under `C=CC(=O)N1CC2(CCN(c3cnccc3-c3ccc(CNC(=O)c4noc(C(C)(C)C)n4)c(C)c3)C2)C1` [Example 7, N-(4-(3-(2-acryloyl-2,6-diazaspiro[3.4]octan-6-yl)pyridin-4-yl)-2-methylbenzyl)-5-(tert-butyl)-1,2,4-oxadiazole-3-carboxamide] stands > 10 nM; under `CNC/C=C/C(=O)N1CCN(c2cnccc2-c2ccc(CNC(=O)c3noc(C(C)(C)C)n3)c(C)c2)CC1` [Example 68, (E)-5-(tert-butyl)-N-(2-methyl-4-(3-(4-(4-(methylamino)but-2-enoyl)piperazin-1-yl)pyridin-4-yl)benzyl)-1,2,4-oxadiazole-3-carboxamide], 1 to 10 nM; under `C=CC(=O)N1CCC2(CCN(c3cnccc3-c3ccc(CNC(=O)c4cn(C(C)(C)C)nn4)c(C)c3)C2)C1` (stereo not shown) [Example 4, N-(4-(3-(7-acryloyl-2,7-diazaspiro[4.4]nonan-2-yl)pyridin-4-yl)-2-methylbenzyl)-1-(tert-butyl)-1H-1,2,3-triazole-4-carboxamide], > 10 nM.
Under `Cc1cc(-c2ccncc2N2CCN(C(=O)/C=C/CN3CCC3)CC2)ccc1CNC(=O)c1noc(C(C)(C)C)n1` [Example 66, (E)-N-(4-(3-(4-(4-(azetidin-1-yl)but-2-enoyl)piperazin-1-yl)pyridin-4-yl)-2-methylbenzyl)-5-(tert-butyl)-1,2,4-oxadiazole-3-carboxamide] stands 1 to 10 nM; under `C=CC(=O)N1CCN(c2cncnc2-c2ccc(CNC(=O)c3nc(C(C)(C)C)no3)c(C)c2)CC1` [Example 83, N-(4-(5-(4-acryloylpiperazin-1-yl)pyrimidin-4-yl)-2-methylbenzyl)-3-(tert-butyl)-1,2,4-oxadiazole-5-carboxamide], ≤ 1 nM; under `C#CC(=O)N1CCN(c2cnccc2-c2ccc(CNC(=O)c3noc(C(C)(C)C)n3)c(C)c2)CC1` [Example 60, 5-(tert-butyl)-N-(2-methyl-4-(3-(4-propioloylpiperazin-1-yl)pyridin-4-yl)benzyl)-1,2,4-oxadiazole-3-carboxamide], ≤ 1 nM.
Under `C=CC(=O)N1CCC[C@@H](c2cnccc2-c2ccc(CNC(=O)c3cn(C(C)(C)C)nn3)c(C)c2)C1` (single isomer, unassigned) [Example 25] stands > 10 nM; under `Cc1cc(-c2ccncc2N2CCN(C(=O)/C=C/CN(C)C)C(C)C2)ccc1CNC(=O)c1noc(C(C)(C)C)n1` (stereo not shown) [Example 74, (E)-5-(tert-butyl)-N-(4-(3-(4-(4-(dimethylamino)but-2-enoyl)-3-methylpiperazin-1-yl)pyridin-4-yl)-2-methylbenzyl)-1,2,4-oxadiazole-3-carboxamide], ≤ 1 nM.
Take `Cc1cc(-c2ccncc2N2CCN(C(=O)/C=C/CN3CCN(C)CC3)CC2)ccc1CNC(=O)c1noc(C(C)(C)C)n1` [Example 65, (E)-5-(tert-butyl)-N-(2-methyl-4-(3-(4-(4-(4-methylpiperazin-1-yl)but-2-enoyl)piperazin-1-yl)pyridin-4-yl)benzyl)-1,2,4-oxadiazole-3-carboxamide]: the half-maximal inhibitory concentration (IC50) lay in the range of 1 to 10 nM.
Under `C=CC(=O)N(C)C1CCCN(c2cnccc2-c2ccc(CNC(=O)c3cn(C(C)(C)C)nn3)c(C)c2)C1=O` (stereo not shown) [Example 10, 1-(tert-butyl)-N-(2-methyl-4-(3-(3-(N-methylacrylamido)-2-oxopiperidin-1-yl)pyridin-4-yl)benzyl)-1H-1,2,3-triazole-4-carboxamide] stands > 10 nM; under `C=CC(=O)N1CCC[C@@H](c2cnccc2-c2ccc(CNC(=O)c3nc(C4(C)CC4)no3)c(C)c2)C1` (single isomer, unassigned) [Example 31], > 10 nM; under `C=CC(=O)N(C)C1CCN(c2cncnc2-c2ccc(CNC(=O)c3cn(C(C)(C)C)nn3)c(C)c2)C1` (stereo not shown) [Example 9, 1-(tert-butyl)-N-(2-methyl-4-(5-(3-(N-methylacrylamido)pyrrolidin-1-yl)pyrimidin-4-yl)benzyl)-1H-1,2,3-triazole-4-carboxamide], ≤ 1 nM.
As to `C=CC(=O)N1CCC[C@@H](c2cnccc2-c2ccc(CNC(=O)c3cc(C(C)(C)C)on3)c(C)c2)C1` (single isomer, unassigned) [Example 34], the IC50 was > 10 nM.
In the case of `Cc1cc(-c2c(F)cncc2N2CCN(C(=O)/C=C/CN(C)C)CC2)ccc1CNC(=O)c1noc(C(C)(C)C)n1` [Example 76, (E)-5-(tert-butyl)-N-(4-(3-(4-(4-(dimethylamino)but-2-enoyl)piperazin-1-yl)-5-fluoropyridin-4-yl)-2-methylbenzyl)-1,2,4-oxadiazole-3-carboxamide], the concentration for half-maximal inhibition (IC50) is ≤ 1 nM.
Under `Cc1cc(-c2ccncc2N2CCN(C(=O)/C=C/CN(C)C)C(C(F)(F)F)C2)ccc1CNC(=O)c1noc(C(C)(C)C)n1` (stereo not shown) [Example 75, (E)-5-(tert-butyl)-N-(4-(3-(4-(4-(dimethylamino)but-2-enoyl)-3-(trifluoromethyl)piperazin-1-yl)pyridin-4-yl)-2-methylbenzyl)-1,2,4-oxadiazole-3-carboxamide] stands ≤ 1 nM; under `CN(C)C/C=C/C(=O)N1CCN(c2cnccc2-c2ccc(CNC(=O)c3noc(C4(C)CC4)n3)c(C(F)(F)F)c2)CC1` [Example 91, (E)-N-(4-(3-(4-(4-(dimethylamino)but-2-enoyl)piperazin-1-yl)pyridin-4-yl)-2-(trifluoromethyl)benzyl)-5-(1-methylcyclopropyl)-1,2,4-oxadiazole-3-carboxamide], ≤ 1 nM.
Under `C=CC(=O)N(C)CC1CCN(c2cnccc2-c2ccc(CNC(=O)c3noc(C(C)(C)C)n3)c(C)c2)C1` (stereo not shown) [Example 20, 5-(tert-butyl)-N-(2-methyl-4-(3-(3-((N-methylacrylamido)methyl)pyrrolidin-1-yl)pyridin-4-yl)benzyl)-1,2,4-oxadiazole-3-carboxamide] stands ≤ 1 nM; under `Cc1cc(-c2ccncc2N2CCN(C(=O)C3=CCC3)CC2)ccc1CNC(=O)c1noc(C(C)(C)C)n1` [Example 57, 5-(tert-butyl)-N-(4-(3-(4-(cyclobut-1-ene-1-carbonyl)piperazin-1-yl)pyridin-4-yl)-2-methylbenzyl)-1,2,4-oxadiazole-3-carboxamide], ≤ 1 nM; under `C=CC(=O)N1CCC2(CCN(c3cnccc3-c3ccc(CNC(=O)c4cn(C)nc4C(F)F)c(C)c3)C2)C1` (stereo not shown) [Example 5, N-(4-(3-(7-acryloyl-2,7-diazaspiro[4.4]nonan-2-yl)pyridin-4-yl)-2-methylbenzyl)-3-(difluoromethyl)-1-methyl-1H-pyrazole-4-carboxamide], > 10 nM.
Under `C=CC(=O)N(C)[C@@H]1CCCN(c2cncc(C#N)c2-c2ccc(CNC(=O)c3cn(C(C)(C)C)nn3)c(C)c2F)C1` [Example 47, 1-(tert-butyl)-N-(4-(3-cyano-5-((R)-3-(N-methylacrylamido)piperidin-1-yl)pyridin-4-yl)-3-fluoro-2-methylbenzyl)-1H-1,2,3-triazole-4-carboxamide] stands ≤ 1 nM; under `C=CC(=O)N1CCN(c2cnccc2-c2ccc(CNC(=O)c3noc(C4(CF)CC4)n3)c(C)c2)CC1` [Example 98, N-(4-(3-(4-acryloylpiperazin-1-yl)pyridin-4-yl)-2-methylbenzyl)-5-(1-(fluoromethyl)cyclopropyl)-1,2,4-oxadiazole-3-carboxamide], ≤ 1 nM.
In the case of `Cc1cc(-c2c(F)cncc2N2CCN(C(=O)/C=C/CN(C)C)CC2)ccc1CNC(=O)c1nc(C(C)(C)C)no1` [Example 78, (E)-3-(tert-butyl)-N-(4-(3-(4-(4-(dimethylamino)but-2-enoyl)piperazin-1-yl)-5-fluoropyridin-4-yl)-2-methylbenzyl)-1,2,4-oxadiazole-5-carboxamide], the IC50 is ≤ 1 nM.
With `Cc1cc(-c2c(F)cncc2N2CCN(C(=O)/C=C/CN(C)C)CC2)ccc1CNC(=O)c1noc(C2(C)CC2)n1` [Example 77, (E)-N-(4-(3-(4-(4-(dimethylamino)but-2-enoyl)piperazin-1-yl)-5-fluoropyridin-4-yl)-2-methylbenzyl)-5-(1-methylcyclopropyl)-1,2,4-oxadiazole-3-carboxamide], the IC50 is 1 to 10 nM.
Under `C=CC(=O)N(C)C1CCN(c2cnccc2-c2ccc(CNC(=O)c3cn(C(C)(C)C)nn3)c(C)c2)C1=O` (stereo not shown) [Example 11, 1-(tert-butyl)-N-(2-methyl-4-(3-(3-(N-methylacrylamido)-2-oxopyrrolidin-1-yl)pyridin-4-yl)benzyl)-1H-1,2,3-triazole-4-carboxamide] stands > 10 nM.
